Data: patent publication US11691986B2, “PTEFB inhibiting macrocyclic compounds” (Bayer Aktiengesellschaft, priority 2017, dated 2023)
Where “and” joins values, the source holds several entries; their conditions need not be identical. Equal entries are not always repeated.

How the values were obtained:
A2780 cells = assay: Proliferation assay, A2780 (Cell Titre-Glo); assay type: cell-based; conditions: Homo sapiens; A2780, 72-hour exposure; read-out: Inhibition of A2780 cell proliferation IC50
Description: A2780 human ovarian carcinoma cells (ECACC #93112519) and non-adherent MOLM-13 human acute myeloid leukemia cells (DSMZ ACC 554) were seeded at a density of 3,000 cell/well (A2780) or 5,000 cells/well (MOLM-13) in a 96-well multititer plate in 150 μL of growth medium supplemented 10% fetal calf serum. After 24 hours, cell viability of one plate (zero-point plate) was determined with the Cell Titre-Glo Luminescent Cell Viability Assay (Promega), while the medium of the other plates was supplemented with the test substances in various concentrations (0 μM, as well as in the range of 0.0001-10 μM; the final concentration of the solvent dimethyl sulfoxide was adjusted to 0.1%) using a Hewlett-Packard HP D300 Digital Dispenser. Cell viability was assessed after 72-hour exposure with the Cell Titre-Glo Luminescent Cell Viability Assay (Promega). IC50 values (inhibitory concentration at 50% of maximal effect) were determined by means of a 4 parameter fit on measurement data which were normalized to vehicle (DMSO) treated cells (=100%) and measurement readings taken immediately before compound exposure (=0%).

CDK2/CycE = target: T1, CDK2/CycE (Homo sapiens, UniProt P24941); assay: CDK2/CycE high ATP kinase assay (TR-FRET); assay type: biochemical; conditions: 2 mM ATP, Method 2b
T1 construct: GST; purchased ProQinase GmbH (Freiburg, Germany); host or cells: insect cells (Sf9)
Description: 2b. CDK2/CycE High ATP Kinase Assay
CDK2/CycE-inhibitory activity of compounds of the present invention at 2 mM adenosine-tri-phosphate (ATP) was quantified employing the CDK2/CycE TR-FRET (TR-FRET=Time Resolved Fluorescence Energy Transfer) assay as described in the following paragraphs.
Recombinant fusion proteins of GST and human CDK2 and of GST and human CycE, expressed in insect cells (Sf9) and purified by Glutathion-Sepharose affinity chromatography, were purchase from ProQinase GmbH (Freiburg, Germany). As substrate for the kinase reaction biotinylated peptide biotin-Ttds-YISPLKSPYKISEG (C-terminus in amid form) was used which can be purchased e.g. form the company JERINI peptide technologies (Berlin, Germany).
(§1) For the assay 50 nl of a 100 fold concentrated solution of the test compound in DMSO was pipetted into either a black low volume 384 well microtiter plate or a black 1536 well microtiter plate (both Greiner Bio-One, Frickenhausen, Germany), 2 μl of a solution of CDK2/CycE in aqueous assay buffer [50 mM Tris/HCl pH 8.0, 10 mM MgCl2, 1.0 mM dithiothreitol, 0.1 mM sodium ortho-vanadate, 0.01% (v/v) Nonidet-P40 (Sigma)] were added and the mixture was incubated for 15 min at 22° C. to allow pre-binding of the test compounds to the enzyme before the start of the kinase reaction. […] The concentration of CDK2/CycE was adjusted depending of the activity of the enzyme lot and was chosen appropriate to have the assay in the linear range, typical concentrations were about 10 ng/ml. The reaction was stopped by the addition of 3 μl of a solution of TR-FRET detection reagents (0.333 μM streptavidine-XL665 [Cisbio Bioassays, Codolet, France] and 1.67 nM anti-RB(pSer807/pSer811)-antibody from BD Pharmingen [#558389] and 2 nM LANCE EU-W1024 labeled anti-mouse IgG antibody [Perkin-Elmer, product no. AD0077, as an alternative a Terbium-cryptate-labeled anti-mouse IgG antibody from Cisbio Bioassays can be used]) in an aqueous EDTA-solution (167 mM EDTA, 0.2% (w/v) bovine serum albumin in 100 mM HEPES pH 7.5).
(§2) The resulting mixture was incubated 1 h at 22° C. to allow the formation of complex between the phosphorylated biotinylated peptide and the detection reagents. Subsequently the amount of phosphorylated substrate was evaluated by measurement of the resonance energy transfer from the Eu-chelate to the streptavidine-XL. Therefore, the fluorescence emissions at 620 nm and 665 nm after excitation at 350 nm was measured in a TR-FRET reader, e.g. a Pherastar (BMG Labtechnologies, Offenburg, Germany) or a Viewlux (Perkin-Elmer). The ratio of the emissions at 665 nm and at […] was taken as the measure for the amount of phosphorylated substrate. The data were normalised (enzyme reaction without inhibitor=0% inhibition, all other assay components but no enzyme=100% inhibition).

CDK9/CycT1 = target: T2, CDK9/CycT1 (Homo sapiens, UniProt P50750); assay: CDK9/CycT1 high ATP kinase assay (TR-FRET); assay type: biochemical; conditions: 2 mM ATP; for IC50: Method 1b; for Selectivity high ATP CDK9 over high ATP CDK2: IC50 (high ATP CDK2)/IC50 (high ATP CDK9): minimal values where CDK9 IC50 is at the assay limit of about 1-2 nM
T2 construct: Recombinant full-length His-tagged human CDK9 and CycT1; His; purchased Life Technologies PV4131; host or cells: insect cells
T2 sequence (P50750 whole entry): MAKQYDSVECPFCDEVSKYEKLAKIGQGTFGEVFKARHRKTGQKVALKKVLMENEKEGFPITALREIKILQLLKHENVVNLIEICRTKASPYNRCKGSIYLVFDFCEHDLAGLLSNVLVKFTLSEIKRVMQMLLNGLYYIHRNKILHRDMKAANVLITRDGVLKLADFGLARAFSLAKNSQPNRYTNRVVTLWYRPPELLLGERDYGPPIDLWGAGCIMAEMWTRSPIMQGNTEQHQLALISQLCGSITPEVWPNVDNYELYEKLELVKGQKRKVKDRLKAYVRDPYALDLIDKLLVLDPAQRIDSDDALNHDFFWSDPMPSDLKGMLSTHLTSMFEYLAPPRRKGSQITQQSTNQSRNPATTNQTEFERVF
T2 sequence (O60563 whole entry partner): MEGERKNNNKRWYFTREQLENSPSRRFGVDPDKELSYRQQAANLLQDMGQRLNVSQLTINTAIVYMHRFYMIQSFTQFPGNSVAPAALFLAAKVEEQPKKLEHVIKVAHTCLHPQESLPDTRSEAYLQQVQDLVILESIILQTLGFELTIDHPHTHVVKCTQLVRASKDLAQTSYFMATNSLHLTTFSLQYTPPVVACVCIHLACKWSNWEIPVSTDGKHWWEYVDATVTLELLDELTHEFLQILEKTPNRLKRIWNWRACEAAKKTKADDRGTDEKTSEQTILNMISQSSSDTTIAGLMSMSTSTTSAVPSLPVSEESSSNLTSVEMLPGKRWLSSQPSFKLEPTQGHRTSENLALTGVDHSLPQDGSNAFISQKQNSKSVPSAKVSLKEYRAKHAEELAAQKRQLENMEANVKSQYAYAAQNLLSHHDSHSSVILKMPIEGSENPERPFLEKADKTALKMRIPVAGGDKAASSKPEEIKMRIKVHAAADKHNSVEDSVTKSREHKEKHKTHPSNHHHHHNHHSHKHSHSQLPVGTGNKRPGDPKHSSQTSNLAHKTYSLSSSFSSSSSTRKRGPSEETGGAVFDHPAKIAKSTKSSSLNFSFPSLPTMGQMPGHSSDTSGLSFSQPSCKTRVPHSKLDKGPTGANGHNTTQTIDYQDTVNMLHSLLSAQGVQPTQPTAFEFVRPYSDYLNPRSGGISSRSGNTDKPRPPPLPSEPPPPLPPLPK
Description: 1b. CDK9/CycT1 High ATP Kinase Assay
CDK9/CycT1-inhibitory activity of compounds of the present invention at a high ATP concentration after preincubation of enzyme and test compounds was quantified employing the CDK9/CycT1 TR-FRET assay as described in the following paragraphs.
Recombinant full-length His-tagged human CDK9 and CycT1, expressed in insect cells and purified by Ni-NTA affinity chromatography, were purchased from Life Technologies (Cat. No PV4131). As substrate for the kinase reaction biotinylated peptide biotin-Ttds-YISPLKSPYKISEG (C-terminus in amide form) was used which can be purchased e.g. form the company JERINI peptide technologies (Berlin, Germany).
as §1, with “CDK9/CycT1” for “CDK2/CycE”, “in the range of 0.5 μg/ml.” for “about 10 ng/ml.”, “(0.33” for “(0.333”, “AD0077])” for “AD0077, as an alternative a Terbium-cryptate-labeled anti-mouse IgG antibody from Cisbio Bioassays can be used])”
as §2

[1] = target: T3, human PTEFb (CDK9/Cyclin T1) (Homo sapiens, UniProt P50750); assay: Surface Plasmon Resonance PTEFb; assay type: binding; conditions: SPR, 37° C.; for Target residence time: 1/koff; for Kd: * = arithmetic mean of more than one value, read-out: Equilibrium dissociation constant KD
T3 construct: purchased ProQinase, Freiburg, Germany
T3 sequence (P50750 whole entry): as the sequence (P50750 whole entry) above
T3 sequence (O60563 whole entry partner): as the sequence (O60563 whole entry partner) above
Source text: 8. Surface Plasmon Resonance PTEFb
The ability of the compounds according to the invention to bind human PTEFb may be determined using surface plasmon resonance (SPR). KD values and koff values may be measured using a Biacore® T200 instrument (GE Healthcare, Uppsala, Sweden).
For SPR measurements, recombinant human PTEFb (CDK9/Cyclin T1 recombinant human active protein kinase purchased from ProQinase, Freiburg, Germany) is immobilized using standard amine coupling (Johnsson B et al, Anal Biochem. 1991 Nov. 1; 198(2):268-77). Briefly, carboxymethylated dextran biosensor chips (CM7, GE Healthcare) are activated with N-ethyl-N′-(3-dimethylaminopropyl)-carbodiimide hydrochloride (EDC) and N-hydroxysuccinimide (NHS) according to the supplier's instructions. Human PTEFb is diluted in 1×HBS-EP+(GE Healthcare) and injected on the activated chip surface. Subsequently, a 1:1 solution of 1 M ethanolamine-HCl (GE Healthcare) and 1×HBS-EP is injected to block unreacted groups, resulting in approximately 4000 response units (RU) of immobilized protein. A reference surface is generated by treatment with NHS-EDC and ethanolamine-HCl. Compounds are dissolved in 100% dimethylsulfoxide (DMSO, Sigma-Aldrich, Germany) to a concentration of 10 mM and subsequently diluted in running buffer (1×HBS-EP+pH 7.4 [generated from HBS-EP+Buffer 10×(GE Healthcare): 0.1 M HEPES, 1.5 M NaCl, 30 mM EDTA and 0.5% v/v Surfactant P20], 1% v/v DMSO). For kinetic measurements, serial dilutions of compound (0.078 nM up to 25 nM) are injected over immobilized protein. Binding kinetics is measured at 37° C. with a flow rate of 100 μl/min in running buffer. Compound concentrations are injected for 70 s followed by a dissociation time of 1100 s. The resulting sensorgrams are double-referenced against the reference surface as well as against blank injections.
The double-referenced sensorgrams are fit to a simple reversible Langmuir 1:1 reaction mechanism as implemented in the Biacore® T200 evaluation software 2.0 (GE Healthcare). In cases were full compound dissociation has not occurred at the end of the dissociation phase, the Rmax parameter (response at saturation) is fit as local variable. In all other cases, Rmax is fit as global variable.

bronchospasms = conditions: in vivo; cited from earlier work

Structure (SMILES)	IC50 (A2780 cells) [nM]	IC50 (CDK2/CycE) [nM]	IC50 (CDK9/CycT1) [nM]	Selectivity high ATP CDK9 over high ATP CDK2: IC50 (high ATP CDK2)/IC50 (high ATP CDK9) (CDK9/CycT1)	Target residence time ([1]; * = arithmetic mean)	Kd [1]	Dissociation rate constant koff ([1]; * = arithmetic mean, < = below what is resolvable)	protection against bronchospasms (duration) (bronchospasms)
CC(C)(C)OC(=O)N=S(C)(=O)Cc1cc2cc(c1)OCCCCCNc1cc(ccc1F)-c1nc(ncc1F)N2 (racemic) [Example 4, (rac)-tert-butyl [{[3,21-difluoro-13-oxa-5,7,19,26-tetraazatetracyclo[18.3.1.1^2,6.1^8,12]hexacosa-1(24),2(26),3,5,8(25),9,11,20,22-nonaen-10-yl]methyl}(methyl)oxido-λ^6-sulfanylidene]carbamate]	31	3670	1.4	2740	–	–	–	–
CS(=N)(=O)Cc1cc2cc(c1)OCCCCCNc1cc(ccc1F)-c1nc(ncc1F)N2 (racemic) [Example 5, (rac)-3,21-difluoro-10-[(S-methylsulfonimidoyl)methyl]-13-oxa-5,7,19,26-tetraazatetracyclo[18.3.1.1^2,6.1^8,12]hexacosa-1(24),2(26),3,5,8(25),9,11,20,22-nonaene]	3.4	357	1.6	216	–	–	–	–
CS(=N)(=O)Cc1cc2nc(c1)OCCCCNc1cc(ccc1F)-c1cc(ncc1F)N2 (racemic) [Example 6, (rac)-3,20-difluoro-10-[(S-methylsulfonimidoyl)methyl]-13-oxa-5,7,18,24-tetraazatetracyclo[17.3.1.1^2,6.1^8,12]pentacosa-1(23),2(25),3,5,8(24),9,11,19,21-nonaene]	6.7	25	4	6.3	–	–	–	–
CSCc1cc2cc(c1)OC(C)CCCNc1cc(ccc1F)-c1nc(ncc1F)N2 (racemic) [Example 7, (rac)-3,20-difluoro-14-methyl-10-[(methylsulfanyl)methyl]-13-oxa-5,7,18,25-tetraazatetracyclo[17.3.1.1^2,6.1^8,12]pentacosa-1(23),2(25),3,5,8(24),9,11,19,21-nonaene]	71	2980	3.9	762	–	–	–	–
CS(=N)(=O)Cc1cc2cc(c1)OCCCCNc1cc(ccc1F)-c1nc(ncc1F)N2 (single isomer, unassigned) [Example 9, 3,20-difluoro-10-[(S-methylsulfonimidoyl)methyl]-13-oxa-5,7,18,25-tetraazatetracyclo[17.3.1.1^2,6.1^8,12]pentacosa-1(23),2(25),3,5,8(24),9,11,19,21-nonaene]	–	85	2.3	37	> 208 min	0.046 nM and 0.022 nM and 0.015 nM and 0.062 nM and 0.11 nM and 0.031 nM and 0.07 nM and 0.054 nM	–	–
CS(=N)(=O)Cc1cc2cc(c1)OCCCCNc1cc(ccc1F)-c1nc(ncc1F)N2 (single isomer, unassigned) [Example 10, 3,20-difluoro-10-[(S-methylsulfonimidoyl)methyl]-13-oxa-5,7,18,25-tetraazatetracyclo[17.3.1.1^2,6.1^8,12]pentacosa-1(23),2(25),3,5,8(24),9,11,19,21-nonaene]	–	130	1.6	79	37* min	0.15 nM	4.5E−4* 1/s	–
C[N+]1(C)[C@@H]2C[C@@H](OC(=O)C(O)(c3cccs3)c3cccs3)C[C@H]1[C@@H]1O[C@@H]12 [tiotropium]	–	–	–	–	–	–	–	more than 6 hours
